The values below come from patent US20040101503A1, “Use of protectin activator to enhance the skin's resistance, composition comprising such activators and selection method” (SOCIETE L'OREAL S.A., priority 2002, published 2004).

Each structure is given as a SMILES string.

The test relates to messenger RNAs coding for the protein CD59. Put plainly: cDNA array of CD59 mRNA on standard human dermal fibroblasts. The format is cell-based. Conditions: for Comparision of the Control Population with the Population Exposed to the Extract (in %) / Fibroblasts Exposed to the Extract (RE): 15 micrograms/ml; for Comparision of the Control Population with the Population Exposed to the Extract (in %): control = 100; for Fibroblasts Exposed to the Extract (RE): control fibroblasts 6.1 RE. Here is the method:
The methodology used is that recommended by Clontech (Palo Alto, USA). […] The total RNA solutions were treated with DNAse I in order to remove any trace of contaminant DNA, in accordance with the supplier's recommendations. The quality of the RNA was then verified on agarose gel and the RNA solutions were adjusted to 1 μg/ml.
The next step was the purification of the messenger RNAs (mRNA) by hybridization of the poly(A) ends of the mRNAs using biotinylated oligo(dT) primers and selective capture on streptavidin beads, in accordance with the Atlaspure protocol (Clontech). ^33P-labeled DNA probes were produced by reverse transcription of the niRNAs bound to poly(dT) beads, using a pool of specific primers of the immobilized sequences on membranes (arrays), in the presence of (α^33P)-dATP. This step used the reagents and the protocol recommended by Clontech. The labeled probes were purified by chromatography on an exclusion column, and the quality and equivalence of the labeled probes was evaluated by liquid scintillation counting.
cDNA array membranes were pretreated and then the cDNAs immobilized on each membrane were hybridized (68° C., overnight) with the corresponding labeled probes. The filters were subsequently washed and placed in individual plastic bags for analysis. Analysis took place by direct quantification of the radioactivity of the spots using a Cyclone phosphoimager (Packard). The results were expressed in relative expression units (RE, radioactivity of the spot corresponding to each gene, corrected for the background noise and for the differences in intensity of labeling of the probes).
The study was carried out on standard human fibroblasts. Dermal fibroblasts were cultivated in DMEM (Life Technology, ref. 21969035) containing L-glutamine (2 mM, Life Technology, ref. 25030024), 50 IU/ml penicillin and 50 μg/ml streptomycin (Life Technology, ref. 15070063) and 1% foetal calf serum (v/v, Life Technology, ref. 10106151).
A fraction of a root extract of Panax notoginseng (San Qi) containing only the saponins was tested for its activity in accordance with the protocol described in the foregoing example by the technique of cDNA array on fibroblasts. The two principal saponins from the extract were also tested.
All the products were tested at a final concentration of 15 micrograms/ml

In the case of `CC(C)=CCC[C@](C)(O[C@@H]1O[C@H](CO)[C@@H](O)[C@H](O)[C@H]1O)[C@H]1CC[C@]2(C)[C@@H]1[C@H](O)C[C@@H]1[C@@]3(C)CC[C@H](O)C(C)(C)[C@@H]3[C@@H](O[C@@H]3O[C@H](CO)[C@@H](O)[C@H](O)[C@H]3O)C[C@]12C` [Rg1, Rg1 ginsenoside], the “effect on expression of messenger RNAs coding for the protein CD59 (in words)” value is on record as “significantly modify”, the “Comparision of the Control Population with the Population Exposed to the Extract (in %)” value was 277% and the “Fibroblasts Exposed to the Extract (RE)” value was determined as 16.8 RE.
For the compound `CC(C)=CCC[C@](C)(O[C@@H]1O[C@H](CO[C@@H]2O[C@H](CO)[C@@H](O)[C@H](O)[C@H]2O)[C@@H](O)[C@H](O)[C@H]1O)[C@H]1CC[C@]2(C)[C@@H]1[C@H](O)C[C@@H]1[C@@]3(C)CC[C@H](O[C@@H]4O[C@H](CO)[C@@H](O)[C@H](O)[C@H]4O[C@@H]4O[C@H](CO)[C@@H](O)[C@H](O)[C@H]4O)C(C)(C)[C@@H]3CC[C@]12C` [Rb1, Rb1 ginsenoside], the “effect on expression of messenger RNAs coding for the protein CD59 (in words)” value was “significantly modify”, the “Comparision of the Control Population with the Population Exposed to the Extract (in %)” value is 277% and the “Fibroblasts Exposed to the Extract (RE)” value worked out at 13.8 RE.
